Assays:
SNI mice [1] = experiment: Spared nerve injury (SNI) model, Von Frey test, intrathecal or i.p. administration; assay type: in vivo
Description: Spared nerve injury model (SNI) was performed according to methods described in Richner et al., 2011. Briefly, under isoflurane (2%) anaesthesia, the skin on the left lateral surface of the thigh was incised and the biceps femoris muscle was divided and spread lengthwise to expose the three branches of the sciatic nerve. After exposing the three branches (common peroneal, tibial and sural) in anesthetized mice, the common peroneal and tibial branches were carefully segregated from surrounding tissues, tightly ligated and axotomized ˜2 mm of the distal nerve stump, while the sural branch was left intact.
Drugs were administered either intrathecally to anesthetized mice or intraperitoneally (i.p.).
The development and level of mechanical threshold was determined in the affected hind paws 2 days after the SNI procedure by using Von Frey filaments ranging from 0.02 to 1.4 g. In the current experiments filaments in ascending order were applied to the lateral part of the hind paws. Each Von Frey hair was applied five times over a total period of 30 seconds and the mouse's reaction was assessed after each application; the threshold for a positive test was set at 3 trials, which evoked responses out of a maximum of 5 trials. […] Forces of the instrument are measured with units “g” and represent the gram-forces. […]

SNI mice [2] = experiment: SNI neuropathic pain model, subcutaneous administration, Von Frey; assay type: in vivo; conditions: 10 μmol/kg s.c.
Description: Mice: 8 weeks old C57BI6J mice (from Charles River)
10 μmol/kg peptide solution was subcutaneously administered (100 μL/10 g).
Spared Nerved Injury surgery: The surgery was performed on anaesthetized mice. A complete ligature and transection of the common peroneal and tibial distal branches of the sciatic nerve was performed, leaving the sural branch intact. The operated side is referred to as the ipsilateral side and the non-operated side is referred to as the contralateral side. 7 days post-surgery, a decrease of threshold response to Von Frey filaments of ipsilateral hind paw was observed.
Mechanical threshold response: The mechanical threshold response of the operated mice was measured with calibrated Von Frey filaments using up/down method, and the 50% threshold (g) was calculated (see equation 1). Mechanical pain responses are defined as paw withdrawal, flinching and/or paw licking following filament prick. The experimenter was blinded to mice treatment. One baseline measure was performed before surgery, one measure 7 days after surgery (D+7) before drug's administration. One measure was performed 1 h, 2 h, 3 h and 4 h post drug administration. n=8 mice/timepoint for peptide treatment.
Statistical analysis: Statistical analysis was performed using Graphpad Prism 7.0. Pain threshold, measured as paw withdrawal threshold, was compared between time “before drug effect” and time points after drug administration (+1, +2, +3, +4 hrs), or against vehicle control (all time points). Two-way RM ANOVA followed by Dunnet's multiple comparison tests. Significance level set to p<0.05.

[3] = FPLC size exclusion chromatography of CPP variants in PBS; assay type: physicochemical; conditions: Superdex 200 Increase 10/300, relative to P4-(C5)2
Description: All samples were run in a 200 μL volume on a Superdex 200 Increase 10/300 column on an AKTA purifier FPLC system. The absorbance at 280 nm as a function of elution volume was normalized to the maximal absorbance of each peptide and plotted using GraphPadPrism 7.0.

PICK1 PDZ domain = biological target: T1, PICK1 PDZ domain (Rattus norvegicus, UniProt Q9EP80); experiment: Fluorescence polarization competition binding to PICK1 (Example 1); conditions: PEGx dimerization of C5
T1 construct: made in house; host or cells: E. coli BL21-DE3-pLysS
T1 sequence (Q9EP80 whole entry, the tested form may be a part): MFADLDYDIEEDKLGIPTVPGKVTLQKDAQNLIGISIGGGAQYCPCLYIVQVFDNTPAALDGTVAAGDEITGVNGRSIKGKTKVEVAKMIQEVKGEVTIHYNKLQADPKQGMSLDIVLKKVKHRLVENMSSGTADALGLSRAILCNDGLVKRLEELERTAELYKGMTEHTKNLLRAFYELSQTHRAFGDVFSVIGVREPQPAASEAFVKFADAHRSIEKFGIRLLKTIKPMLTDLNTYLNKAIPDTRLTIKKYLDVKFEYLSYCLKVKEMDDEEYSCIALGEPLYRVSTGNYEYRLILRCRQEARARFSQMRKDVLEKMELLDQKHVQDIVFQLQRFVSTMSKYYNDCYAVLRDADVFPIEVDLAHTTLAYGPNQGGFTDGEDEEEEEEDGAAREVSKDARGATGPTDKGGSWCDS
Description: Protein expression was induced with 10 mM Isopropyl β-D-1-thiogalactopyranoside (IPTG) and grown overnight at 20° C. […] Resuspended pellet was frozen at −80° C. to induce cell lysis. The bacterial suspension was thawed and cleared by centrifugation. The supernatant was collected and incubated with Glutathione-Sepharose 4B beads for 2 hrs at 4° C. under gentle rotation. […] Washed beads were transferred to a PD10 gravity column. Bead solution was incubated with thrombin protease overnight at 4° C. under gentle rotation.
Fluorescence polarization was carried out in saturation mode and competition mode.

PICK1 = biological target: T2, PICK1 (Rattus norvegicus, UniProt Q9EP80); experiment: biochemical; assay type: binding; conditions: for Fold affinity change: compared to TAT-P4-(C5)2
T2 construct: made in house; host or cells: E. coli BL21-DE3-pLysS
T2 sequence (Q9EP80 whole entry): as the sequence (Q9EP80 whole entry, the tested form may be a part) above
Description: The data was plotted in GraphPad Prism 7.0 and fitted to a ‘One site-Fit’ Ki curve and the apparent affinities (Ki) for the unlabelled peptides were determined using correction for depletion.

Plasma stability = assay type: in vitro ADME; conditions: human, 37° C., 24 h incubation
Description: (§1) 360 μL undiluted human male serum (Sigma; H4522) or PBS was kept at 37° C. for 15 min, followed by addition of 40 μL (500 uM) of relevant peptide and subsequent incubation at 37° C. For stability analysis, 45 μL samples was taken out at t=0 min and t=24 hrs, and samples quenched by addition of 50 μL 6M urea followed by incubation at 37° C. for additional 30 min. 50 μL 20% TCA (W7V) in acetone was added to each sample before incubation for at least 16 hrs at 5° C. Samples were centrifuged at 14.000×g for 30 min and supernatants collected and filtered using a 0.22 μm syringe filter. Samples were analyzed on an Acquity UPLC H-Class instrument using a C18 column with a 15 min 10-80% […] gradient. Remaining analyte (%) was calculated as the area under curve (AUC) of the main peak at indicated time points relative to the sample at t=0 min.

PBS stability = assay type: physicochemical; conditions: 37° C., 24 hrs
Description: as §1

[4] = biological target: T3, PICK1 pre-bound to TacDAT C24 (Rattus norvegicus, UniProt Q9EP80); experiment: SCMS dissociation of pre-bound PICK1; assay type: binding; conditions: pre-bound PICK1 on TacDAT C24 SCMS
T3 construct: Partner: transfected HEK293-GT cells, ruptured into membrane sheets
T3 sequence (Q9EP80 whole entry): as the sequence (Q9EP80 whole entry, the tested form may be a part) above
Description: Human Embryo Kidney 293 GripTite cells (HEK293-GT) for SCMS were grown i in Dulbecco's modified Eagle's medium 1965 with fetal calf serum and pen-strep antibiotics. Cells were transfected using TAC-YFP-DATC24 DNA (pEYFP-C1 vector) and lipovectamin in opti-MEM® overnight. Cells were washed once with PBS and detached using 0.5% Trypsin with EDTA. Cells were then seeded into 6-well plates and allowed to grow and attach overnight at 37° C. in humidified 10% CO2 atmosphere.
The SCMS was prepared as described in (Perez et al., 2006). In brief, round cover glasses were plasma cleaned and coated with 0.3 mM poly-L-ornithine hydrobromide (Poly-ORN) for 30 min. The coating Poly-ORN was then removed. Seeded and transfected cells were then washed twice to allow them to swell. The swelled cells were then covered with the cover glass with the Poly-ORN coated side facing down on the cells. Dynamic pressure was manually applied to the cover glass using the piston from a 12 ml plastic syringe for a total of 1 min. The force from removing the cover glass causes some cells to rupture and leave a SCMS on the surface of the cover glass. […] A protein solution was then added to the cover glass and left to incubate for the desired amount of time depending on the experiment. […] The protein: peptide solution was then added to the SCMS-cover glass and incubated for 2 hours. […]

NCC1(CC(=O)O)CCCCC1 [gabapentin]
mechanical hypersensitivity, chronic phase (SNI mice [1]; 30 mg/kg i.p., day 14 after surgery, at 2 hours): full recovery from mechanical hypersensitivity

CC[C@H](C)[C@H](NC(=O)[C@H](CCCCN)NC(=O)[C@@H](NC(=O)[C@H](CCC(N)=O)NC(=O)[C@@H](N)CCCNC(=N)N)[C@@H](C)CC)C(=O)N[C@@H](Cc1c[nH]c2ccccc12)C(=O)N[C@@H](Cc1ccccc1)C(=O)N[C@@H](CCC(N)=O)C(=O)N[C@@H](CC(N)=O)C(=O)N[C@@H](CCCNC(=N)N)C(=O)N[C@@H](CCCNC(=N)N)C(=O)N[C@@H](CCSC)C(=O)N[C@@H](CCCCN)C(=O)N[C@@H](Cc1c[nH]c2ccccc12)C(=O)N[C@@H](CCCCN)C(=O)N[C@@H](CCCCN)C(=O)N(CCOCCOCCC(=O)N[C@@H](Cc1c[nH]cn1)C(=O)N[C@@H](Cc1c[nH]c2ccccc12)C(=O)N[C@@H](CC(C)C)C(=O)N[C@@H](CCCCN)C(=O)N[C@H](C(=O)O)C(C)C)CCOCCOCCC(=O)N[C@@H](Cc1c[nH]cn1)C(=O)N[C@@H](Cc1c[nH]c2ccccc12)C(=O)N[C@@H](CC(C)C)C(=O)N[C@@H](CCCCN)C(=O)N[C@H](C(=O)O)C(C)C [PNT-P4-(C5)2]
ipsilateral paw mechanical threshold compared to before drug administration (SNI mice [2]; any time-point): did not show significant increase | ipsilateral paw mechanical threshold compared to vehicle (SNI mice [2]; any time-point): no significant increase | in-solution oligomeric behavior from elution volume [3]: smaller oligomers than P4-(C5)2 or direct interaction with the column material

CC(C)C[C@H](NC(=O)[C@H](Cc1c[nH]c2ccccc12)NC(=O)[C@H](Cc1c[nH]cn1)NC(=O)CCOCCOCCOCCOCCOCCC(=O)N[C@@H](Cc1c[nH]cn1)C(=O)N[C@@H](Cc1c[nH]c2ccccc12)C(=O)N[C@@H](CC(C)C)C(=O)N[C@@H](CCCCN)C(=O)N[C@H](C(=O)O)C(C)C)C(=O)N[C@@H](CCCCN)C(=O)N[C@H](C(=O)O)C(C)C [P4-(C5)2, PEG4-(HWLKV)2]
fold increase in affinity compared to monomeric C5 (PICK1 PDZ domain): 15 fold

CC[C@H](C)[C@H](NC(=O)[C@H](CCCCN)NC(=O)CNC(=O)[C@H](CC(C)C)NC(=O)[C@H](CC(C)C)NC(=O)[C@H](Cc1ccc(O)cc1)NC(=O)CNC(=O)[C@H](C)NC(=O)[C@H](CO)NC(=O)[C@H](CC(N)=O)NC(=O)[C@H](CC(C)C)NC(=O)[C@@H](NC(=O)[C@H](Cc1c[nH]c2ccccc12)NC(=O)CN)[C@@H](C)O)C(=O)N[C@@H](CC(N)=O)C(=O)N[C@@H](CC(C)C)C(=O)N[C@@H](CCCCN)C(=O)N[C@@H](C)C(=O)N[C@@H](CC(C)C)C(=O)N[C@@H](C)C(=O)N[C@@H](C)C(=O)N[C@@H](CC(C)C)C(=O)N[C@@H](C)C(=O)N[C@@H](CCCCN)C(=O)N[C@@H](CCCCN)C(=O)N[C@H](C(=O)N[C@@H](CC(C)C)C(=O)N(CCOCCOCCC(=O)N[C@@H](Cc1c[nH]cn1)C(=O)N[C@@H](Cc1c[nH]c2ccccc12)C(=O)N[C@@H](CC(C)C)C(=O)N[C@@H](CCCCN)C(=O)N[C@H](C(=O)O)C(C)C)CCOCCOCCC(=O)N[C@@H](Cc1c[nH]cn1)C(=O)N[C@@H](Cc1c[nH]c2ccccc12)C(=O)N[C@@H](CC(C)C)C(=O)N[C@@H](CCCCN)C(=O)N[C@H](C(=O)O)C(C)C)[C@@H](C)CC [TP10-P4-(C5)2]
ipsilateral paw mechanical threshold compared to before drug administration (SNI mice [2]; 2 h): significant increase | ipsilateral paw mechanical threshold compared to vehicle (SNI mice [2]; 2 h): significant increase | Fold affinity change (PICK1): 0.5 fold | in-solution oligomeric behavior from elution volume [3]: smaller oligomers than P4-(C5)2 or direct interaction with the column material

CCOC(=O)NC(=O)/C(C#N)=C/c1ccc(Cl)c(Cl)c1 [FSC231]
mechanical hypersensitivity / withdrawal threshold, acute phase (SNI mice [1]; intrathecal, two days after operation): did not affect withdrawal threshold

CC(C)C[C@H](NC(=O)[C@H](Cc1c[nH]c2ccccc12)NC(=O)[C@H](Cc1cnc[nH]1)NC(=O)[C@H](CCCNC(=N)N)NC(=O)[C@H](CCCNC(=N)N)NC(=O)[C@H](CCCNC(=N)N)NC(=O)[C@H](CCC(N)=O)NC(=O)[C@H](CCCNC(=N)N)NC(=O)[C@H](CCCNC(=N)N)NC(=O)[C@H](CCCCN)NC(=O)[C@H](CCCCN)NC(=O)[C@H](CCCNC(=N)N)NC(=O)CNC(=O)[C@@H](N)Cc1ccc(O)cc1)C(=O)N[C@@H](CCCCN)C(=O)N[C@H](C(=O)O)C(C)C [TAT-C5]
plasma stability (Plasma stability): improved | stability in PBS (PBS stability): good stability in PBS

CC(C)C[C@H](NC(=O)[C@H](C)NC(=O)[C@H](CCCCN)NC(=O)[C@H](CC(C)C)NC(=O)[C@H](C)NC(=O)[C@H](CC(C)C)NC(=O)[C@H](CCCCN)NC(=O)[C@H](CC(C)C)NC(=O)[C@H](C)NC(=O)[C@H](CC(C)C)NC(=O)[C@@H](N)CCCCN)C(=O)N[C@@H](CCCCN)C(=O)N[C@@H](C)C(=O)N[C@@H](C)C(=O)N[C@@H](CC(C)C)C(=O)N[C@@H](CCCCN)C(=O)N[C@@H](CC(C)C)C(=O)N[C@@H](C)C(=O)N(CCOCCOCCC(=O)N[C@@H](Cc1c[nH]cn1)C(=O)N[C@@H](Cc1c[nH]c2ccccc12)C(=O)N[C@@H](CC(C)C)C(=O)N[C@@H](CCCCN)C(=O)N[C@H](C(=O)O)C(C)C)CCOCCOCCC(=O)N[C@@H](Cc1c[nH]cn1)C(=O)N[C@@H](Cc1c[nH]c2ccccc12)C(=O)N[C@@H](CC(C)C)C(=O)N[C@@H](CCCCN)C(=O)N[C@H](C(=O)O)C(C)C [MAP-P4-(C5)2]
ipsilateral paw mechanical threshold compared to before drug administration (SNI mice [2]; 1 h): significant increase | ipsilateral paw mechanical threshold compared to before drug administration (SNI mice [2]; 2 h): significant increase | ipsilateral paw mechanical threshold compared to vehicle (SNI mice [2]; 2 h): significant increase | Ki (PICK1): 5.1 nM | Fold affinity change (PICK1): 0.8 fold | in-solution oligomeric behavior from elution volume [3]: forms higher oligomeric structures than P4-(C5)2

CC(C)C[C@H](NC(=O)[C@H](Cc1c[nH]c2ccccc12)NC(=O)[C@@H](N)Cc1cnc[nH]1)C(=O)N[C@@H](CCCCN)C(=O)N[C@H](C(=O)O)C(C)C [C5, HWLKV]
plasma stability (Plasma stability): full degradation | dissociation of pre-bound PICK1 from SCMSs [4]: neither C5 nor TAT-(C5) could significantly dissociated PICK1 from SCMSs | stability in PBS (PBS stability): good stability in PBS
